# Measured values from PubChem BioAssay AID1963430 (Molecular Pharmacology Branch, DTP, NCI, 2024).
# Test system: 521955-158-R2-J5-PDC complex spheroid growth, % test/control
# Test: Anticancer human tumor 521955-158-R2-J5-PDC patient-derived pancreatic carcinoma cell line growth inhibition [Asc]
# Details: for IC50: curve of first compound; for viability, T/C: stronger effect = lower value
# Method: Multicellular complex tumor spheroid response to apoptosis pathway targeting inhibitors Alrizomadlin, Pelcitoclax, and Dasminapant in combination with a variety of drugs and investigational agents in selected tumor cell lines
# The MDM2 inhibitor alrizomadlin, the Bcl-2/Bcl-xL inhibitor pelcitoclax, and the IAPs inhibitor dasminapant were evaluated both individually and in combination with standard of care and investigational anticancer small molecules within a complex spheroid model of solid tumors. . Complex spheroids include a stromal component modeled by human endothelial cells (HUVEC) and fibroblasts modeled by human mesenchymal stem cells (MSCs). The concentration ranges selected for each drug and investigational agent were based upon clinically achievable concentrations if the clinical Cmax of the agent was known.
# Compounds. The drugs and investigational agents: alrizomadlin (APG-115; NSC831270), pelcitoclax (APG-1252; NSC835773), dasminapant (APG-1387;NSC834197), TAK-243 (NSC785004), copanlisib (NSC809693), olaparib (NSC753686), talazoparib (NSC767125), cobimetinib (NSC 768068), eltanexor (KPT-8602, NSC 794443), abemaciclib (NSC 768073), sotorasib (NSC818433), adagrasib (NSC 831453), MRTX-1133 (NSC 836407), Iadademestat (ORY1001, NSC 806812), and RMC-4630 (NSC839698), were obtained from the NCI Developmental Therapeutics Program Chemical Repository. The FDA-approved anticancer drug set is available from the Developmental Therapeutics Program at https://dtp.cancer.gov/organization/dscb/obtaining/available plates.htm. […] The stock solutions were prepared in dimethyl sulfoxide (DMSO, Sigma-Aldrich, St. Louis, MO, cat. D2650) at 800-fold the tested concentration and stored at -70 degrees C prior to their use. All drugs and investigational agents were tested over a range starting from a high concentration at or near the clinical Cmax and decreasing in half-log increments. If the clinical Cmax for an agent had not been determined, the highest concentration tested was 10 microM.
# The patient-derived cancer (PDC) cell lines include five colon adenocarcinomas: 186277-243-T-J2-PDC, 616215-338-R-J1-PDC, 439559-082-T-J2-PDC, 463943-066-T-J2-PDC, and 519858-162-T-J1-PDC; three pancreatic carcinomas: 323965-272-R-J2-PDC, 521955-158-R6-J3-PDC, and 521955-158-R2-J5-PDC; two uterine sarcomas: 327498-152-R-J2-PDC and 993429-296-R-J1-PDC; two rhabdomyosarcomas: 755483-174-R-J1-PDC and 772245-204-R-J1-PDC; two soft tissue sarcomas: 126254-015-R-J1-PDC and 494315-158-R-J1-PDC; two malignant fibrous histiocytomas: 317291-083-R-J1-PDC and 596521-263-R-J1-PDC; two breast carcinomas: 171881-019-R-J1-PDC and 885512-296-R-J2-PDC; and one ovarian carcinoma: 6556581-035-R-J-PDC were obtained from the NCI PDMR, (https://pdmr.cancer.gov). The established cell lines HSSY-2 synovial sarcoma (RRID:CVCL 8719), SYO-1 synovial sarcoma (RRID:CVCL_7146), MPNST malignant peripheral neural sheath tumor were obtained from the Sloan Kettering Institute. The following established cell lines were purchased from the American Type Culture Collection (ATCC, Manassas, VA), Sor the received from the NCI repository:, PANC-1 pancreatic carcinoma (CRL-1469, RRID:CVCL_0480), OVCAR-5 ovarian carcinoma (RRID:CVCL_1628), OVCAR-8 ovarian carcinoma (RRID:CVCL_1629), , MCF-7 breast carcinoma (CRL-12584, RRID:CVCL_0031), MDA-MB-231 breast carcinoma (CRL-12532, RRID:CVCL_0062), NCI-H1876 small cell lung carcinoma (CRL-5902, RRID:CVCL_1503), NCI-H510A small cell lung carcinoma (HTB-184, RRID:CVCL_1565), NCI-H1417 (CRL-5869, RRID:CVCL_1469), and NCI-H196 small cell lung carcinoma (CRL-5823, RRID:CVCL_1509). Dr. Peter Houghton (Greehey Children's Cancer Research Institute, University of Texas Health Science Center, San Antonio, TX) provided Rh-18 rhabdomyosarcoma (RRID:CVCL_1659). Pooled donor human umbilical vein endothelial cells (HUVEC, Lonza, cat. CC-2519) and human mesenchymal stem cells (hMSC, Lonza, cat. PT-2501) were purchased from Lonza (Walkersville, MD).
# Cell Culture. […]
# [1] = second compound 0.03 µM, first compound 0.00316 µM
# [2] = second compound 0.03 µM, first compound 0.01 µM
# [3] = second compound 0.03 µM, first compound 0.0316 µM
# [4] = second compound 0.03 µM, first compound 0.1 µM
# [5] = second compound 0.03 µM, first compound 0.316 µM
# [6] = second compound 0.03 µM, first compound 1 µM
# [7] = second compound 0.0949 µM, first compound 0.00316 µM
# [8] = second compound 0.0949 µM, first compound 0.01 µM
# [9] = second compound 0.0949 µM, first compound 0.0316 µM
# [10] = second compound 0.0949 µM, first compound 0.1 µM
# [11] = second compound 0.0949 µM, first compound 0.316 µM
# [12] = second compound 0.0949 µM, first compound 1 µM
# [13] = second compound 0.3 µM, first compound 0.00316 µM
# [14] = second compound 0.3 µM, first compound 0.01 µM
# [15] = second compound 0.3 µM, first compound 0.0316 µM
# [16] = second compound 0.3 µM, first compound 0.1 µM
# [17] = second compound 0.3 µM, first compound 0.316 µM
# [18] = second compound 0.3 µM, first compound 1 µM
# [19] = second compound 0.949 µM, first compound 0.00316 µM
# [20] = second compound 0.949 µM, first compound 0.01 µM
# [21] = second compound 0.949 µM, first compound 0.0316 µM
# [22] = second compound 0.949 µM, first compound 0.1 µM
# [23] = second compound 0.949 µM, first compound 0.316 µM
# [24] = second compound 0.949 µM, first compound 1 µM
# [25] = second compound 3 µM, first compound 0.00316 µM
# [26] = second compound 3 µM, first compound 0.01 µM
# [27] = second compound 3 µM, first compound 0.0316 µM
# [28] = second compound 3 µM, first compound 0.1 µM
# [29] = second compound 3 µM, first compound 0.316 µM
# [30] = second compound 3 µM, first compound 1 µM
# 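Note: spheroids exposed to agents for 7 days before readout.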
# 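Throughout, for viability, T/C: 100% = DMSO vehicle control viability.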
SMILES,IC50 (second compound 0.03 µM),IC50 (second compound 0.0949 µM),IC50 (second compound 0.3 µM),IC50 (second compound 0.949 µM),IC50 (second compound 3 µM),"viability, T/C [1]","viability, T/C [2]","viability, T/C [3]","viability, T/C [4]","viability, T/C [5]","viability, T/C [6]","viability, T/C [7]","viability, T/C [8]","viability, T/C [9]","viability, T/C [10]","viability, T/C [11]","viability, T/C [12]","viability, T/C [13]","viability, T/C [14]","viability, T/C [15]",further results
CCN1CCN(Cc2ccc(Nc3ncc(F)c(-c4cc(F)c5nc(C)n(C(C)C)c5c4)n3)nc2)CC1 + CCN1C(C(=O)NC23CCC(C(=O)O)(CC2)CC3)C(c2cccc(Cl)c2F)C2(C(=O)Nc3cc(Cl)ccc32)C12CCCCC2,> 1 µM,> 1 µM,> 1 µM,> 1 µM,> 1 µM,87.5%,88.8%,57.3%,77.4%,72.4%,89.4%,101%,79.8%,62.8%,56.3%,73.2%,105%,106%,99.1%,65.6%,"viability, T/C [16]: 60.9%; viability, T/C [17]: 83.8%; viability, T/C [18]: 110%; viability, T/C [19]: 119%; viability, T/C [20]: 102%; viability, T/C [21]: 107%; viability, T/C [22]: 79%; viability, T/C [23]: 92.3%; viability, T/C [24]: 98.2%; viability, T/C [25]: 142%; viability, T/C [26]: 172%; viability, T/C [27]: 126%; viability, T/C [28]: 89.6%; viability, T/C [29]: 107%; viability, T/C [30]: 139%"
O=C(c1ccc(F)c(F)c1Nc1ccc(I)cc1F)N1CC(O)([C@@H]2CCCCN2)C1 + CCN1C(C(=O)NC23CCC(C(=O)O)(CC2)CC3)C(c2cccc(Cl)c2F)C2(C(=O)Nc3cc(Cl)ccc32)C12CCCCC2,0.077 µM,0.0394 µM,0.165 µM,0.156 µM,0.62 µM,65.8%,56%,62.5%,45.1%,37.2%,29.1%,80.7%,80.1%,51.1%,51.7%,43.1%,35.4%,64.5%,83.3%,85.2%,"viability, T/C [16]: 60%; viability, T/C [17]: 40.9%; viability, T/C [18]: 33.1%; viability, T/C [19]: 93.3%; viability, T/C [20]: 91.3%; viability, T/C [21]: 82.4%; viability, T/C [22]: 57.3%; viability, T/C [23]: 37.8%; viability, T/C [24]: 38.1%; viability, T/C [25]: 107%; viability, T/C [26]: 102%; viability, T/C [27]: 80%; viability, T/C [28]: 71.8%; viability, T/C [29]: 61.8%; viability, T/C [30]: 42.5%"
